In PubChem BioAssay (NCI):
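Five concentrations, 48 hours, 96-well plates. TGI: concentration producing complete growth inhibition.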

Experiments:
Assay in all cases: DTP human tumour cell line panel, 48 h
CAKI-1 renal = system: CAKI-1 renal
NCI-H522 lung = system: NCI-H522 lung
SNB-19 CNS = system: SNB-19 CNS
M14 melanoma = system: M14 melanoma
NCI-H226 lung = system: NCI-H226 lung
TK-10 renal = system: TK-10 renal
COLO 205 colon = system: COLO 205 colon
MALME-3M melanoma = system: MALME-3M melanoma
SF-268 CNS = system: SF-268 CNS
DU-145 prostate = system: DU-145 prostate
SK-OV-3 ovarian = system: SK-OV-3 ovarian

Compound	TGI (CAKI-1 renal) [µM]	TGI (NCI-H522 lung) [µM]	TGI (SNB-19 CNS) [µM]	TGI (M14 melanoma) [µM]	TGI (NCI-H226 lung) [µM]	TGI (TK-10 renal) [µM]	TGI (COLO 205 colon) [µM]	TGI (MALME-3M melanoma) [µM]	TGI (SF-268 CNS) [µM]	TGI (DU-145 prostate) [µM]	TGI (SK-OV-3 ovarian) [µM]
CC(=O)Nc1ccc(C(=O)N2N=C(C)/C(=C/c3cccc(O)c3)C2=O)cc1	> 100	> 100	> 100	> 100	> 100	> 100	> 100	> 100	> 100	–	–
CC(=O)OCC1OC(n2c3c(c(-c4ccco4)c(C#N)c2=S)CCCC3)C(OC(C)=O)C(OC(C)=O)C1OC(C)=O (stereo not given)	87.8	> 31.6	26.2	> 100	> 31.6	24.8	> 31.6	> 31.6	> 31.6	> 31.6	–
c1ccc(COc2ncccc2C2SCCCS2)cc1	> 100	> 100	> 100	> 100	> 100	> 100	> 100	> 100	> 100	> 100	–
COc1cc2cc3c4c(cc(OC)c(OC)c4c2cc1OC)CCN3C(=O)OCCBr	> 100	> 100	> 100	–	2.42	> 100	> 100	> 100	> 100	–	> 100
CNC(=O)OCC1=C(COC(=O)NC)CN(c2ccccc2)C1	–	–	> 100	> 100	> 100	> 100	> 100	> 100	> 100	> 100	> 100
O=C(CCCN1CCc2[nH]c3cc(F)ccc3c2C1)c1ccc(F)cc1	> 100	35.6	> 100	22.2	38.7	24.9	17.1	26	26.7	26.1	–
COc1ccc(NC(=O)C2=C(SC)C(=O)N=C2N)cc1	> 100	–	> 100	–	> 100	> 100	> 100	–	> 100	> 100	> 100
COC(=O)C1(Cc2ccccc2)Cc2ccccc2C1=O (stereo not given)	> 100	–	–	> 100	> 100	> 100	> 100	39.3	> 100	> 100	> 100
Cc1ccc(C2=Nn3c(nc4sc(-c5ccccc5)cc4c3=O)SC2)cc1	> 100	> 100	–	–	> 100	> 100	> 100	> 100	> 100	> 100	> 100
CCOc1ccc(NC(=S)/N=C/C(C(=O)Nc2ccccc2C)=C(\C)O)cc1	> 100	> 100	> 100	> 100	> 100	> 100	> 100	–	> 100	> 100	> 100
O=C(CCN1CCCCC1CO)Nc1ccc2c(c1)C(=O)c1ccc(NC(=O)CCN3CCCCC3CO)cc1C2=O (stereo not given)	57.6	20.6	31.2	22.4	52.5	27.2	21.7	18.8	40.6	–	46.2
COC(=O)CCc1ccc2c(c1)CC1(C2)Cc2ccc(CCC(=O)OC)cc2C1	–	> 100	–	> 100	> 100	> 100	> 100	> 100	–	–	> 100
COC1(OC)/C(=C(\N)C=O)NC(C)(C)N1O	> 100	> 100	> 100	> 100	> 100	–	> 100	> 100	–	> 100	–
C=C1c2nc3ccccc3n2C=C(c2ccccc2)N1c1ccc(OC)cc1	64	16.1	–	52.6	35.6	26.1	> 100	44.8	–	> 100	> 100
Fc1nc(F)nc(-c2c3ccccc3c3n2CCS3)n1	> 100	> 100	> 100	> 100	> 100	–	> 100	> 100	> 100	–	> 100
CCC1(O)CN(CCOC)[C@H]2C[C@@H]1C(=O)c1[nH]c3ccccc3c12 (stereo not given in full)	> 100	> 100	> 100	> 100	> 100	> 100	> 100	> 100	> 100	> 100	–
O=C1O/C(=C\c2ccc(O)cc2)C(c2ccc(O)c(Cl)c2)=C1Br	49.3	20.5	62.7	26.4	–	49.9	33.4	29.5	45.2	27.6	37.2
C=C1C(=O)O[C@H]2C(=O)[C@H](C)CCC[C@@](C)(O)/C=C\C[C@@]3(C)O[C@@H]3C[C@@H]12	27	9.08	> 100	24	> 100	15.1	30.4	–	50.8	27.6	> 100
Cc1cccc(N2CCN(S(=O)(=O)c3ccc(Cl)cc3)C2=N)c1C	> 100	–	> 100	> 100	> 100	> 100	> 100	–	> 100	> 100	> 100
CN(C)CCn1c(=O)c2ccc(NCCNCCO)c3c(=O)c4cc(O)ccc4n(c1=O)c23	–	3.58	10.8	13.6	5.71	21.1	4.6	17.1	14.9	4.97	46.7
O=C(O)CCCc1nc2c(n1-c1ccccc1)C(=O)c1ccccc1C2=O	> 100	> 100	> 100	> 100	–	> 100	> 100	51.8	> 100	> 100	> 100
OCc1ccccc1OC1OC(CO)C(O)C(O)C1O (stereo not given)	> 100	> 100	–	> 100	> 100	> 100	> 100	> 100	> 100	> 100	> 100
